Assay results: US20220324835A1 (Nurix Therapeutics, Inc., priority 2018, published 2022)

Tests used:
Cbl-b [1] = molecular target: T1, Cbl-b (Homo sapiens, UniProt Q13191); assay: Cbl-b inhibition assay (Cbl-b activity assay, FRET, Biological Example 1; 100 mM NaCl, 60 nM Src kinase); format: biochemical; details: upper bound stated in text lists; read-out: IC50 values in the Cbl-b inhibition assay of Biological Example 1
Description: FIG. 1A and FIG. 1B show a series of diagrams depicting the activity assay utilized to assay inhibition of Cbl-b activity by a Cbl-b inhibitor. FIG. 1A: The activity assay mixture comprises an N-terminal biotinylated Avi-tagged Cbl-b, an E2 enzyme (i.e., UbcH5B) irreversibly conjugated to Bodipy-Fluorescein tagged ubiquitin (i.e., UbcH5B-Ub), a Src kinase, streptavidin-terbium, and assay buffer. Phosphorylation of Cbl-b by the Src kinase allows UbcH5B-Ub to bind to Cbl-b and bring the Bodipy-Fluorescein tagged ubiquitin in proximity to the streptavidin-terbium bound to the N-terminal biotinylated Avi-tagged Cbl-b. […] FIG. 1B: In the presence of a Cbl-b inhibitor, such as one described herein, Cbl-b is unable to bind UbcH5B-Ub. The lack of a FRET signal indicates Cbl-b is inhibited by the Cbl-b inhibitor. Ub indicates ubiquitin; N-Avi indicates biotinylated Avi-tag at the N-terminus of Cbl-b; inhibitor indicates Cbl-b inhibitor.
The lack of a FRET signal indicates Cbl-b is inhibited by the Cbl-b inhibitor. In FIG. 1A and FIG. 1B, Ub indicates ubiquitin; N-Avi indicates biotinylated Avi-tag at the N-terminus of Cbl-b; and inhibitor indicates Cbl-b inhibitor.

Cbl-b [2] = molecular target: T1, Cbl-b; assay: Cbl-b activity assay (Cbl-b inhibition assay), TR-FRET of Cbl-b interaction with UbcH5B-Ub; format: biochemical; details: assay buffer with 100 mM NaCl, 60 nM Src kinase; read-out: Cbl-b activity IC50
Method: The ability of candidate compounds to inhibit Cbl-b activity was measured by monitoring the interaction of Cbl-b with UbcH5B-Ub in the presence of the candidate compound.
Fluorescently labeled UbcH5B-Ub was prepared by conjugating ubiquitin (Ub), labeled at its N-terminus with Bodipy-Fluorescein, to UbcH5B, an E2 enzyme, harboring a cysteine to lysine mutation at position 85. […] After incubation in the presence of the candidate compound, the plate was incubated for an additional 1.5 hours in the presence of 60 nM Src kinase with 1 mM ATP and 5 mM MgCl2 (final concentrations). […] The plate was incubated for 1 hour.
Column marked with an asterisk (*) were tested as described above with assay buffer containing 50 mM NaCl instead of 100 mM NaCl and 30 nM Src kinase instead of 60 nM Src kinase. The resulting data for the Cbl-b binding assay was solvent corrected and double referenced prior to analysis. All data were globally fit to a steady-state affinity and kinetic binding model where applicable). Fit parameters were derived from a 1:1 binding model using the Biacore T200 Evaluation Software V2.0 (GE Healthcare) (Table 2).

T1 sequence (Q13191 36-427): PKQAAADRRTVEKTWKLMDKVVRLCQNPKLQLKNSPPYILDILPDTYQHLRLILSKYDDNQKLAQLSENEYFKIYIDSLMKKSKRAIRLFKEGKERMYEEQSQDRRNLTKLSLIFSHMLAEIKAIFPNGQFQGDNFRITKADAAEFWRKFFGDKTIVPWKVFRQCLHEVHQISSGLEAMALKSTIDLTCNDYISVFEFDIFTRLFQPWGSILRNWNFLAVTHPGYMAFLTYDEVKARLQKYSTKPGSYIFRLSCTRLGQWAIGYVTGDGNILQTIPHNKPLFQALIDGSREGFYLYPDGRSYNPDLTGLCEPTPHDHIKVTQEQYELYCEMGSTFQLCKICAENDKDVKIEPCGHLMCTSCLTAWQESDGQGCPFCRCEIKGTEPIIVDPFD

Compound	IC50 (Cbl-b [1])	IC50 (Cbl-b [2])
C[C@H](Sc1nncn1C)c1cccc(NC(=O)c2cc(C(=O)N3CCC[C@H]3C)ccn2)c1 [Compound 142, N-(3-((S)-1-((4-methyl-4H-1,2,4-triazol-3-yl)thio)ethyl)phenyl)-4-((R)-2-methylpyrrolidine-1-carbonyl)picolinamide]	≤ 10 µM	> 10 µM
C[C@H](Sc1nncn1C)c1cccc(NC(=O)c2cc(C(=O)N3CCC(S(C)(=O)=O)C3)ccn2)c1 (stereo partly shown) [Compound 158, N-(3-((A)-1-((4-methyl-4H-1,2,4-triazol-3-yl)thio)ethyl)phenyl)-4-(3-(methylsulfonyl)pyrrolidine-1-carbonyl)picolinamide]	≤ 10 µM	3 to 10 µM
CC(Sc1nncn1C)c1cccc(N2Cc3ccc(C(C)(C)O)cc3C2=O)c1 (stereo not shown) [Compound 165, 6-(1-hydroxy-1-methyl-ethyl)-2-[3-[1-[(4-methyl-1,2,4-triazol-3-yl)sulfanyl]ethyl]phenyl]isoindolin-1-one]	≤ 10 µM	3 to 10 µM
CNC(=O)c1ccc2c(c1)C(=O)N(c1cc(C(C)Sc3nncn3C)ccn1)C2 (stereo not shown) [Compound 173, N-methyl-2-(4-[1-[(4-methyl-4H-1,2,4-triazol-3-yl)sulfanyl]ethyl]pyridin-2-yl)-3-oxo-2,3-dihydro-1H-isoindole-5-carboxamide]	≤ 10 µM	3 to 10 µM
CC(Sc1nncn1C)c1cc(NCCO)nc(N2Cc3c(cccc3C(F)(F)F)C2=O)c1 (stereo not shown) [Compound 174, 2-[6-(2-hydroxyethylamino)-4-[1-[(4-methyl-1,2,4-triazol-3-yl)sulfanyl]ethyl]-2-pyridyl]-4-(trifluoromethyl)isoindolin-1-one]	≤ 10 µM	1 to 3 µM
C[C@H](Cc1nncn1C)c1cccc(NC(=O)c2ccn(C)n2)c1 [Compound 197, (R)-1-methyl-N-(3-(1-(4-methyl-4H-1,2,4-triazol-3-yl)propan-2-yl)phenyl)-1H-pyrazole-3-carboxamide]	≤ 10 µM	1 to 3 µM
Cc1conc1C[C@H](C)c1cccc(NC(=O)c2ccnc(C(F)(F)F)n2)c1 [Compound 213b, (S)-N-(3-(1-(4-methylisoxazol-3-yl)propan-2-yl)phenyl)-2-(trifluoromethyl)pyrimidine-4-carboxamide]	≤ 10 µM	3 to 10 µM
Cc1ccn(CC(C)c2cccc(NC(=O)c3cccc(C(F)(F)F)n3)c2)n1 (stereo not shown) [Compound 216, N-(3-(1-(3-methyl-1H-pyrazol-1-yl)propan-2-yl)phenyl)-6-(trifluoromethyl)picolinamide]	≤ 10 µM	3 to 10 µM
Cc1nnnn1CC(C)c1cccc(NC(=O)c2cccc(C(F)(F)F)n2)c1 (stereo not shown) [Compound 217, N-[3-[1-methyl-2-(5-methyltetrazol-1-yl)ethyl]phenyl]-6-(trifluoromethyl)pyridine-2-carboxamide]	≤ 10 µM	> 10 µM
Cc1cnnn1CC(C)c1cccc(NC(=O)c2cccc(C(F)(F)F)n2)c1 (stereo not shown) [Compound 218, N-[3-[1-methyl-2-(5-methyltriazol-1-yl)ethyl]phenyl]-6-(trifluoromethyl)pyridine-2-carboxamide]	≤ 0.5 µM	0.301 to 1 µM
CC(Cn1[nH]cnc1=O)c1cccc(NC(=O)c2cccc(C(F)(F)F)n2)c1 (stereo not shown) [Compound 219, N-[3-[1-methyl-2-(3-oxo-1H-1,2,4-triazol-2-yl)ethyl]phenyl]-6-(trifluoromethyl)pyridine-2-carboxamide]	≤ 10 µM	3 to 10 µM
C[C@H](Cc1nncn1C)c1cccc(NC(=O)c2cc(C(=O)NC3CCOC3)ccn2)c1 (stereo partly drawn) [Compound 228, N2-(3-((R)-1-(4-methyl-4H-1,2,4-triazol-3-yl)propan-2-yl)phenyl)-N4-(tetrahydrofuran-3-yl)pyridine-2,4-dicarboxamide]	≤ 10 µM	3 to 10 µM
C[C@H](Cc1nncn1C)c1cccc(NC(=O)c2cc(C(=O)N3CC[C@@](C)(N)C3)ccn2)c1 [Compound 230, 4-((R)-3-amino-3-methylpyrrolidine-1-carbonyl)-N-(3-((R)-1-(4-methyl-4H-1,2,4-triazol-3-yl)propan-2-yl)phenyl)picolinamide 2,2,2-trifluoroacetate]	≤ 10 µM	3 to 10 µM
C[C@H](Cc1nncn1C)c1cccc(NC(=O)c2cc(C(=O)N3CC(CO)C3)ccn2)c1 [Compound 232, 4-[3-(hydroxymethyl)azetidine-1-carbonyl]-N-[3-[(2R)-1-(4-methyl-4H-1,2,4-triazol-3-yl)propan-2-yl]phenyl]pyridine-2-carboxamide]	≤ 10 µM	1 to 3 µM
C[C@H](Cc1nncn1C)c1cccc(NC(=O)c2cc(C(=O)N3CCC4(CCO4)C3)ccn2)c1 (stereo partly drawn) [Compound 237, N-[3-[(2R)-1-(4-methyl-4H-1,2,4-triazol-3-yl)propan-2-yl]phenyl]-4-[1-oxa-6-azaspiro[3.4]octane-6-carbonyl]pyridine-2-carboxamide]	≤ 10 µM	3 to 10 µM
C[C@H](Cc1ncco1)c1cccc(N2Cc3c(cccc3C(F)(F)F)C2=O)c1 [Compound 261, (R)-2-(3-(1-(oxazol-2-yl)propan-2-yl)phenyl)-4-(trifluoromethyl)isoindolin-1-one]	≤ 10 µM	3 to 10 µM
CC(Cc1nccn1C)c1cccc(N2Cc3c(cccc3C(F)(F)F)C2=O)c1 (stereo not shown) [Compound 267, 2-(3-(1-(1-methyl-1H-imidazol-2-yl)propan-2-yl)phenyl)-4-(trifluoromethyl)isoindolin-1-one]	≤ 10 µM	3 to 10 µM
CC(Cc1nocc1CO)c1cccc(N2Cc3c(cccc3C(F)(F)F)C2=O)c1 (stereo not shown) [Compound 269, 2-(3-(1-(4-(hydroxymethyl)isoxazol-3-yl)propan-2-yl)phenyl)-4-(trifluoromethyl)isoindolin-1-one]	≤ 10 µM	1 to 3 µM
C[C@H](Cc1n[nH]cc1CO)c1cccc(N2Cc3c(cccc3C(F)(F)F)C2=O)c1 [Compound 271b, (R)-2-(3-(1-(4-(hydroxymethyl)-1H-pyrazol-3-yl)propan-2-yl)phenyl)-4-(trifluoromethyl)isoindolin-1-one]	≤ 10 µM	1 to 3 µM
CC(Cc1nncn1C)c1cc(F)cc(N2Cc3c(cccc3C(F)(F)F)C2=O)c1 (stereo not shown) [Compound 281]	≤ 0.5 µM	0.1 to 0.3 µM
Cn1cnnc1CC(C)(C)c1cccc(NC(=O)c2ccnc(C(F)(F)F)n2)c1 [Compound 285, N-(3-(2-methyl-1-(4-methyl-4H-1,2,4-triazol-3-yl)propan-2-yl)phenyl)-2-(trifluoromethyl)pyrimidine-4-carboxamide]	≤ 0.5 µM	0.1 to 0.3 µM
Cc1ccc(C(=O)Nc2cccc([C@H](C)[C@H](O)c3nncn3C)c2)nc1C1CC1 [Compound 288, Trans-6-cyclopropyl-N-(3-(1-hydroxy-1-(4-methyl-4H-1,2,4-triazol-3-yl)propan-2-yl)phenyl)-5-methylpicolinamide]	≤ 10 µM	3 to 10 µM
COC(Cc1nncn1C)c1cccc(N2Cc3c(cccc3C(F)(F)F)C2=O)c1 (stereo not shown) [Compound 290, 2-(3-(1-methoxy-2-(4-methyl-4H-1,2,4-triazol-3-yl)ethyl)phenyl)-4-(trifluoromethyl)isoindolin-1-one]	≤ 10 µM	1 to 3 µM
CCOC(Cc1nncn1C)c1cccc(N2Cc3c(cccc3C(F)(F)F)C2=O)c1 (stereo not shown) [Compound 291, 2-(3-(1-ethoxy-2-(4-methyl-4H-1,2,4-triazol-3-yl)ethyl)phenyl)-4-(trifluoromethyl)isoindolin-1-one]	≤ 10 µM	3 to 10 µM
Cn1cnnc1C(F)(F)[C@@](C)(F)c1cccc(N2Cc3c(cccc3C(F)(F)F)C2=O)c1 [Compound 296b, (S)-2-(3-(1,1,2-trifluoro-1-(4-methyl-4H-1,2,4-triazol-3-yl)propan-2-yl)phenyl)-4-(trifluoromethyl)isoindolin-1-one]	≤ 10 µM	3 to 10 µM
Cn1cnnc1CC(C)(O)c1cccc(N2Cc3c(cccc3C(F)(F)F)C2=O)c1 (stereo not shown) [Compound 297, 2-(3-(2-hydroxy-1-(4-methyl-4H-1,2,4-triazol-3-yl)propan-2-yl)phenyl)-4-(trifluoromethyl)isoindolin-1-one]	≤ 10 µM	3 to 10 µM
